The nature of assay [1]: off-note masking in consumables containing non-animal derived protein (general statements).
Assay [2] in a line: Potato protein solution taste description. The conditions noted are these: 3 wt % potato protein solution + 14 ppt ethyl cyclohexanoate; Sample A without it: earthy, musty, fishy, bitter. The protocol:
An aqueous potato protein solution comprising 3 weight % potato protein (Solanic™ 200 by Avebe) was prepared (Sample A).

Structures are written as SMILES.

For the molecule `CCOC(=O)C1CCCCC1` [ethyl cyclohexanoate], in assay [1] (higher concentrations, 50 ppt or more), the “effect on off-note attributes” value was “provides a significant effect on several off-note attributes, but in addition confers some fruity notes”. Moreover, the off-note masking result in assay [1] (up to 20 ppt (e.g. 0.5 ppt to about 15 ppt) added to a consumable comprising about 3 wt % non-animal derived protein) is recorded as “good results”. Besides, the masking of off-notes entry in assay [1] (use around its odor detection threshold, about 0.5 ppt (ng/L) to about 20 ppt (ng/L)) is “provides the masking of certain off-notes”. The taste description entry in assay [2] is recorded as “earthy, potato-like, but no fishy, bitter taste attributes have been noticed”.

The values are drawn from US20210204580A1, “ORGANIC COMPOUNDS” (Givaudan SA, priority 2018, published 2021).
